{
  "source": "paper PMC10355191",
  "about": "(Chemical research in toxicology, 2023)",
  "target": "α2A-adrenergic receptor (Homo sapiens, UniProt P08913)",
  "sequence (P08913 whole entry)": "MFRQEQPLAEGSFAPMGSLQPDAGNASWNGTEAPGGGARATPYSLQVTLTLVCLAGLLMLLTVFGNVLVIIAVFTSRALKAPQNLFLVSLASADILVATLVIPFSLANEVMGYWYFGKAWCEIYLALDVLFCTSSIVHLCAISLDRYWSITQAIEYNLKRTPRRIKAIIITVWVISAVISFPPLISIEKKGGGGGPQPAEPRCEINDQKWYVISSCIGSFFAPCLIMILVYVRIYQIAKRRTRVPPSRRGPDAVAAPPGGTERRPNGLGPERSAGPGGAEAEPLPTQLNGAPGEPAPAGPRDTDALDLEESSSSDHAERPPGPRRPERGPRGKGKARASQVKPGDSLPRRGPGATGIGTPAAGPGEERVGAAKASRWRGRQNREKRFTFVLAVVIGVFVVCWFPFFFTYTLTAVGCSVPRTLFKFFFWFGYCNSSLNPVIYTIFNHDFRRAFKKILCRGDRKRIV",
  "data": [
    {"compound": "N=C(N)N/N=C/c1c(Cl)cccc1Cl", "note": "[E-GA, trans-guanabenz]", "values": [
      {"measurement": "% inhibition at 1 μM", "result": 50}
    ]}
  ]
}
